Source: patent US10947241B2, “Phenyl phthalazine derivative, method for the preparation thereof, and pharmaceutical composition comprising the same” (Seoul National University Hospital, priority 2016, dated 2021)
Counter-ions that a name gives are not always drawn.

Biological target: hResistin (Homo sapiens (Human), UniProt Q9HD89)
Assay: Evaluation of the ability to inhibit TNF-α secretion by hResistin (THP-1 cells, ELISA)
Assay type: cell-based
Settings: for inhibition at 5 µM: inhibition of TNF-α secretion by hResistin in THP-1 cells; for IC50: THP-1 human monocyte cell line, human recombinant Resistin
Procedure: Experimental Example: Evaluation of the Ability to Inhibit TNF-α Secretion by hResistin
Using THP-1 (human monocyte) cell line and ELISA system, the abilities to inhibit TNF-α secretion by hResistin (IC50) were evaluated for the compounds prepared in the above examples. The compounds target hResistin, and the abilities of the compounds to inhibit TNF-α secretion by human recombinant Resistin in human monocyte (THP-1) were evaluated. The abilities to inhibit TNF-α secretion were assessed by ELISA quantifying the amount of antibody with the enzyme as a marker using an antigen-antibody reaction.
Specifically, the cultured cells were spun down at 1,500 rpm for 2 minutes, the supernatant was removed and then the cells were re-suspended in 10 mL of complete RPMI-1640 medium. After counting the number of cells using Luna™ Automated Cell Counter, cells were plated into 96-well assay plates at 50 μL per well. The cells cultured for 24 hours were treated with the test substances in accordance with the concentration for 1 hour, and then the supernatant was collected and subjected to ELISA assay. In the ELISA assay, the absorbance at 450 nm (OD450 nm) was measured using Flexstation 3. The ability of each test substance to inhibit TNF-α secretion (IC50) and its inhibition at a concentration of 5 uM are shown in Table 1 below.

Chain of hResistin (Q9HD89 19-108): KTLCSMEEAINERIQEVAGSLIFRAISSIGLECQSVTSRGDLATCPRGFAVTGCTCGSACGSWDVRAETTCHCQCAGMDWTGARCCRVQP

Structure (SMILES) | inhibition at 5 µM [%] | IC50 [nM]
COCCN1CCN(c2nnc(-c3ccc(Cl)cc3)c3ccccc23)CC1 [Example 9, 1-(4-chlorophenyl)-4-(4-(2-methoxyethyl)piperazin-1-yl)phthalazine] |  | 3700
CNC1CCN(c2nnc(Nc3ccc(Cl)cc3)c3ccccc23)C1 (stereo not shown) [Example 97, N-(4-chlorophenyl)-4-(3-(methylamino)pyrrolidin-1-yl)phthalazin-1-amine] | 26.9 | 
C[C@H]1CN(C(=O)C(C)(C)N)CCN1c1nnc(-c2ccc(Cl)cc2)c2ccccc12 [Example 74, (S)-2-amino-1-(4-(4-(4-chlorophenyl)phthalazin-1-yl)-3-methylpiperazin-1-yl)-2-methylpropan-1-one hydrochloride] | 38.7 | 
O=C(C1CCCCN1)N1CCN(c2nnc(-c3ccc(Cl)cc3)c3ccccc23)CC1 (stereo not shown) [Example 78, (4-(4-(4-chlorophenyl)phthalazin-1-yl)piperazin-1-yl)(piperidin-2-yl)methanone hydrochloride] | 81.3 | 
CC(C)[C@H](N)C(=O)N1CCN(c2nnc(-c3ccc(Cl)cc3)c3ccccc23)[C@@H](C)C1 [Example 75, (S)-2-amino-1-((S)-4-(4-(4-chlorophenyl)phthalazin-1-yl)-3-methylpiperazin-1-yl)-3-methylbutan-1-one hydrochloride] | 30.9 | 
CC(C)(N)C(=O)N1CCN(c2nnc(-c3ccc(OC(F)(F)F)cc3)c3ccccc23)CC1 [Example 103, 2-amino-2-methyl-1-(4-(4-(4-(trifluoromethoxy)phenyl)phthalazin-1-yl)piperazin-1-yl)propan-1-one hydrochloride] | 32 | 

More lines, now with the values ahead:

inhibition at 5 µM [%] | IC50 [nM] | Structure (SMILES)
42.2 |  | CC(C)[C@H](N)C(=O)N1CCN(c2nnc(-c3ccc(Cl)cc3)c3ccccc23)C[C@H]1C [Example 71, (S)-2-amino-1-((R)-4-(4-(4-chlorophenyl)phthalazin-1-yl)-2-methylpiperazin-1-yl)-3-methylbutan-1-one hydrochloride]
72.2 |  | C[C@H]1CN(c2nnc(-c3ccc(Cl)cc3)c3ccccc23)CCN1C(=O)C(C)(C)N [Example 72, (S)-2-amino-1-(4-(4-(4-chlorophenyl)phthalazin-1-yl)-2-methylpiperazin-1-yl)-2-methylpropan-1-one hydrochloride]
48.1 |  | O=C1CN[C@H](C(=O)N2CCN(c3nnc(-c4ccc(Cl)cc4)c4ccccc34)CC2)CN1 [Example 81, (S)-5-(4-(4-(4-chlorophenyl)phthalazin-1-yl)piperazine-1-carbonyl)piperazin-2-one hydrochloride]
53.6 |  | CC[C@H](C)[C@H](N)C(=O)N1CCC(c2nnc(-c3ccc(Cl)cc3)c3ccccc23)CC1 [Example 63, (2S,3S)-2-amino-1-(4-(4-(4-chlorophenyl)phthalazin-1-yl)piperidin-1-yl)-3-methylpentan-1-one hydrochloride]
86.7 | 900 | CNC1CCN(c2nnc(-c3ccc(Cl)cc3)c3cc(Cl)ccc23)C1 (stereo not shown) [Example 90, 1-(6-chloro-4-(4-chlorophenyl)phthalazin-1-yl)-N-methylpyrrolidin-3-amine hydrochloride]
26.2 |  | O=C(C1CC1)N1CCC(c2nnc(-c3ccc(Cl)cc3)c3ccccc23)CC1 [Example 56, (4-(4-(4-chlorophenyl)phthalazin-1-yl)piperidin-1-yl)(cyclopropyl)methanone]
